Experimental data as given in paper PMC10041525, “New Dual Inhibitors of Bacterial Topoisomerases with Broad-Spectrum Antibacterial Activity and In Vivo Efficacy against Vancomycin-Intermediate Staphylococcus aureus” (Journal of Medicinal Chemistry, 2023).
Like-named read-outs stand apart in the source and are kept apart here.

System: 100 A. baumannii strains (50 MDR, 50 non-MDR)
Experiment: MIC broth microdilution at IHMA Europe, panel of 100 strains
Type: cell-based
Settings: Acinetobacter baumannii, read-out: MIC

Measured: MIC

C[C@@H](O)[C@H]1C(=O)N2C(C(=O)O)=C(SCCNC=N)C[C@H]12 [Imipenem, imipenem]
≤ 0.25 µg/mL: A. baumannii IHMA 1769393, Lithuania 2018, Non-MDR | A. baumannii IHMA 1769910, Israel 2018, Non-MDR | A. baumannii IHMA 1790317, Czech Republic 2018, Non-MDR | A. baumannii IHMA 1790916, Romania 2018, Non-MDR | A. baumannii IHMA 1829500, Georgia 2018, Non-MDR | A. baumannii IHMA 1830924, United Kingdom 2018, Non-MDR | A. baumannii IHMA 1849829, Kuwait 2018, Non-MDR | A. baumannii IHMA 1857118, Slovenia 2018, Non-MDR | A. baumannii IHMA 1863631, France 2018, Non-MDR | A. baumannii IHMA 1870054, United States 2018, Non-MDR | A. baumannii IHMA 1884428, Italy 2018, Non-MDR | A. baumannii IHMA 1884990, Germany 2018, Non-MDR | A. baumannii IHMA 1900538, Turkey 2018, Non-MDR | A. baumannii IHMA 1913773, Kenya 2018, Non-MDR | A. baumannii IHMA 1926285, Qatar 2018, Non-MDR | A. baumannii IHMA 1957343, Portugal 2019, Non-MDR | A. baumannii IHMA 1967860, Spain 2019, Non-MDR | A. baumannii IHMA 1975075, Israel 2019, Non-MDR | A. baumannii IHMA 1977077, Kuwait 2019, Non-MDR | A. baumannii IHMA 1995161, Czech Republic 2019, Non-MDR | A. baumannii IHMA 1997936, Morocco 2019, Non-MDR | A. baumannii IHMA 1999178, Belgium 2019, Non-MDR | A. baumannii IHMA 2014367, Jordan 2019, Non-MDR | A. baumannii IHMA 2014931, South Africa 2019, Non-MDR | A. baumannii IHMA 2019315, Romania 2019, Non-MDR | A. baumannii IHMA 2031511, Greece 2019, Non-MDR | A. baumannii IHMA 2034657, Tunisia 2019, Non-MDR | A. baumannii IHMA 2035134, Serbia 2019, Non-MDR | A. baumannii IHMA 2058329, Slovenia 2019, Non-MDR | A. baumannii IHMA 2065587, France 2019, Non-MDR | A. baumannii IHMA 2099294, United Kingdom 2019, Non-MDR | A. baumannii IHMA 2129256, Qatar 2019, Non-MDR | A. baumannii IHMA 2157614, Australia 2020, Non-MDR
0.5 µg/mL: A. baumannii IHMA 1795669, Tunisia 2018, Non-MDR | A. baumannii IHMA 1821468, South Africa 2018, Non-MDR | A. baumannii IHMA 1986678, Turkey 2019, Non-MDR
> 16 µg/mL: A. baumannii IHMA 1769782, Israel 2018, MDR | A. baumannii IHMA 1791877, Israel 2018, MDR | A. baumannii IHMA 1792961, Jordan 2018, MDR | A. baumannii IHMA 1814276, Lebanon 2018, MDR | A. baumannii IHMA 1815198, Kuwait 2018, MDR | A. baumannii IHMA 1815856, Israel 2018, MDR | A. baumannii IHMA 1849819, Kuwait 2018, MDR | A. baumannii IHMA 1926288, Qatar 2018, MDR | A. baumannii IHMA 1963732, Turkey 2019, MDR | A. baumannii IHMA 1971673, Latvia 2019, MDR | A. baumannii IHMA 1983151, Greece 2019, MDR | A. baumannii IHMA 1984665, Lithuania 2019, MDR | A. baumannii IHMA 1986738, Turkey 2019, MDR | A. baumannii IHMA 1987162, Croatia 2019, MDR | A. baumannii IHMA 1993615, Turkey 2019, MDR | A. baumannii IHMA 1994284, Italy 2019, MDR | A. baumannii IHMA 2003279, Turkey 2019, MDR | A. baumannii IHMA 2020360, Croatia 2019, MDR | A. baumannii IHMA 2031524, Greece 2019, MDR | A. baumannii IHMA 2035089, Serbia 2019, MDR | A. baumannii IHMA 2038976, Hungary 2019, MDR | A. baumannii IHMA 2051503, Serbia 2019, MDR | A. baumannii IHMA 2156634, Turkey 2020, MDR | A. baumannii IHMA 2156709, Turkey 2020, MDR | A. baumannii IHMA 2177232, Lithuania 2020, MDR
16 µg/mL: A. baumannii IHMA 2154584, Israel 2020, MDR | A. baumannii IHMA 2155340, Kenya 2020, MDR
